Test results: patent US5888994A, “Fluorinated Vitamin D3 analogs” (Hoffmann-La Roche Inc., priority 1997, dated 1999)

Legend:
[1] = Calcium liability (tolerance test in mice); conditions: mouse, in vivo, sc, daily subcutaneous administration for 4 consecutive days, 5 day treatment period, read-out: HTD (highest tolerated dose: dose which results in zero weight gain)
From the text: Profound changes in calcium homeostasis strongly affect the weight development of the animals. This parameter was used as a primary test for tolerance.
Mice (25-30 g body weight) received daily subcutaneous administrations of the vitamin D derivative for 4 consecutive days. Body weight was registered just before and at the end of a […] treatment period. The "highest tolerated dose" (HTD) is the dose which results in zero weight gain during this treatment period.

[2] = test system: HL-60 cells; assay: HL-60 cell differentiation (oxidative burst via NBT reduction); format: cell-based; conditions: Homo sapiens, 72 h, 3 days, NBT reduction at 540 nm, mean of 3 wells, read-out: ED50 (concentration leading to 50% of maximal differentiation achieved with 100-1000 nM calcitriol)
Method: The induction of differentiation of HL-60 cells was assayed by measuring their oxidative burst potential via the reduction of NBT (Nitrobluetetrazolium).
30,000 cells/90 μl of RPMI/FCS were seeded into flat-bottomed microtiter wells. 10 μl of vitamin D derivatives diluted in complete medium were added at the same time to yield final concentrations between 10^-11 and 10^-6 M (stock solutions of 10^-2 M in ethanol were kept at -20° C. and protected from light).
Values were expressed as percent of maximal differentiation achieved with 100-1000 nM calcitriol in the same experiment.

[3] = test system: HaCaT cells; assay: Inhibition of keratinocyte proliferation (3H-thymidine uptake, HaCaT); format: cell-based; conditions: HaCaT human keratinocyte line, 6 days of culture
Method: HaCaT cell line--The immortalized human cell line HaCaT was used. ^3 H-thymidine incorporation was measured in exponentially growing cultures after 6 days of culture in presence of the test compound.
Cell culture--HaCaT cells were cultured in Dulbecco's Modified Eagle Medium (DMEM) and Nutrient Mixture Ham's F12 (F12), 3:1 (v/v, ICN) containing 4.5 g/l glucose and supplemented with 10% fetal calf serum (Gibco, FCS), L-glutamine (Gibco, 2mM), penicillin (Gibco, 50 UI/ml), streptomycin (Gibco, 50 μg/ml), EGF (10 ng/ml), hydrocortisone (400 ng/ml), cholera toxin (8.5 ng/ml) and insulin (5 ng/ml). The cells were maintained in a humidified atmosphere containing 5% CO2 and 95% air and passaged every 3-4 days.
Inhibition of ^3 H-thymidine uptake--HaCaT cells (250 cells in complete culture medium) were seeded into 96-well culture dishes and incubated at 37° C. with 5% CO2 and 95% air for 6 days. Inhibitors, dissolved at 10× concentration in 1% ethanol, were added immediately at the beginning of the assay. ^3 H-thymidine (5 Ci/mmol, Amersham) was added at a concentration of 1 μCi/well and cells were pulse-labelled for the last 6 hours of the growth period. Cells were then trypsinized for 10 minutes at 37° C. under a vigorous agitation and harvested on to a 96-well GF/C filter plate (Uni Filter, Packard) using a Micro Mate 196 cell harvester (Packard). After drying at 40° C. under vacuum for 20-30 minutes, 2 μl of Micro Scint 0 scintillator (Packard) were added and the radioactivity bound to the filters was counted on a TOP COUNT (Packard).

[4] = test system: sebaceous cells; assay: Inhibition of human sebocyte proliferation in vitro; format: cell-based; conditions: tested at 10^-6, 10^-7 and 10^-8 M, vs vehicle-treated culture, read-out: ED50 (amount of compound necessary to inhibit the proliferation of sebaceous cells by 50%)
Method: Sebaceous cells were isolated from adult human sebaceous glands by a combination of enzymatic and mechanical methods (Doran et al., Characterization of Human Cells In Vitro, J. Invest. Dermatol. 96:34-8 (1991)). The cells were cultured in Iscove's medium containing 10% fetal calf serum and 4 μg/ml dexamethasone on a layer of growth-arrested 3T3 mouse fibroblasts. Cells were plated in medium without the test compound and then given test compound in fresh medium, containing the test compound, every 48 hours. On the day of harvesting, the cultures were rinsed with 0.03% EDTA in PBS, to remove only the 3T3 fibroblasts, followed by incubation in 0.05% trypsin/0.03% EDTA. The cells were suspended, mixed vigorously to prepare a single cell suspension and counted in a hemocytometer.
Stock solutions of compounds were made up as 10^-2 M solutions in degassed 100% ethanol and stored at -20° C. in the dark. During experimental use, the solutions, which have been aliquoted, were brought to room temperature and used by diluting directly into complete medium to appropriate concentration.
The compounds were tested for the inhibition of proliferation of sebaceous cell growth in vitro at 10^-6, 10^-7 and 10^-8 M.
The results are summarized in Table III below as the amount of compound necessary to inhibit the proliferation of sebaceous cells by 50% (ED50) in nM as compared to a vehicle-treated culture.

Work on `C=C1CC[C@H](O)C/C1=C/C=C1\CCC[C@]2(C)C([C@H](C)CC#CC(C)(O)C(F)(F)F)=CC[C@@H]12` (stereo partly drawn) [25(R,S)-Hydroxy-16-ene-23-yne-26-trifluoro-cholecalciferol] yielded an MTD at 120 h [1] of 0.6 mg/kg, an EC50 [2] of 160 nM and an IC50 [3] of 650 nM.

In the case of `C=C1/C(=C\C=C2/CCC[C@]3(C)C([C@H](C)CC#CC(C)(O)C(F)(F)F)=CC[C@@H]23)C[C@@H](O)C[C@@H]1O` (stereo partly drawn) [1,25(R,S)-Dihydroxy-16-ene-23-yne-26-trifluoro-cholecalciferol], the MTD at 120 h [1] is reported as 0.001 mg/kg, the EC50 [2] is reported as 0.15 nM and the IC50 [4] is reported as 1 nM. It also gave an IC50 [3] of 10 nM.

`C=C1/C(=C\C=C2/CCC[C@]3(C)C([C@H](C)CC#CC(C)(O)C(F)(F)F)=CC[C@@H]23)C[C@@H](O)C[C@@H]1F` (stereo partly drawn) [1α-fluoro-25(R,S)-hydroxy-16-ene-23-yne-26-trifluoro-cholecalciferol] showed an MTD at 120 h [1] of 0.02 mg/kg, an EC50 [2] of 3.7 nM and an IC50 [3] of 11 nM.

Work on `C=C1/C(=C\C=C2/CCC[C@]3(C)[C@@H]([C@H](C)CCCC(C)(C)O)CC[C@@H]23)C[C@@H](O)C[C@@H]1O` [1,25-Dihydroxycholecalciferol, reference compound] yielded an EC50 [2] of 8 nM.

In the case of `C[C@H](CC#CC(C)(O)C(F)(F)F)C1=CC[C@H]2/C(=C/C=C3C[C@@H](O)C[C@H](O)C3)CCC[C@]12C` (stereo partly drawn) [1,25(R,S)-Dihydroxy-16-ene-23-yne-26-trifluoro-19-nor-cholecalciferol], the MTD at 120 h [1] is reported as 0.002 mg/kg, the EC50 [2] is reported as 0.37 nM and the IC50 [3] is reported as 5.1 nM.
